Measured values reported in ChEMBL document CHEMBL1133206, “Antifungal rapamycin analogues with reduced immunosuppressive activity” (Bioorg Med Chem Lett, 2000).
In brackets after ≈: the same amount, converted by molar mass.

Key:
Aspergillus niger = test: In vitro antifungal activity at a minimum inhibitory concentration (~100 ug/mL) against Aspergillus niger; Not affected; assay type: functional; details: Aspergillus niger; read-out: MIC
Candida albicans [1] = test: In vitro antifungal activity against Candida albicans (CA 10231); assay type: functional
Candida albicans [2] = test: In vitro antifungal activity against Candida albicans (CA 62376); Weak; assay type: functional, organism-based
Candida albicans [3] = test: In vitro antifungal activity against […] (CA 34140); Not affected.; assay type: functional
Candida albicans [4] = test: In vitro for antifungal activity against Candida albicans (CA 579a); assay type: functional
Homo sapiens = species: Homo sapiens; test: Inhibitory activity against human concanavalin-A proliferation assay; assay type: functional
Candida tropicalis = test: In vitro antifungal activity against Candida tropicalis (CT 750); assay type: functional
Nakaseomyces glabratus = test: In vitro antifungal activity against Torulopsis glabrata (TG 15545); assay type: functional
Candida albicans [5] = test: In vitro antifungal activity against Candida albicans (CA 442); Weak; assay type: functional, organism-based
Candida albicans [6] = test: In vitro antifungal activity against Candida albicans (CA 38247); Weak; assay type: functional, organism-based
Pichia kudriavzevii = test: In vitro antifungal activity against Candida krusei (CK 28838); assay type: functional

| MIC (Aspergillus niger) | MIC (Candida albicans [1]) | MIC (Candida albicans [2]) | MIC (Candida albicans [3]) | MIC (Candida albicans [4]) | MIC (Candida tropicalis) | MIC (Nakaseomyces glabratus) | MIC (Candida albicans [5]) | MIC (Candida albicans [6]) | MIC (Pichia kudriavzevii) | SMILES | IC50 (Homo sapiens) |
| --- | --- | --- | --- | --- | --- | --- | --- | --- | --- | --- | --- |
| ~100 µg/mL (≈ 101 µM) | 100 µg/mL (≈ 101 µM) | Weak | ~100 µg/mL (≈ 101 µM) | 100 µg/mL (≈ 101 µM) | 50 µg/mL (≈ 50.7 µM) | 3.12 µg/mL (≈ 3.16 µM) | Weak | Weak | – | CO[C@@H]1C[C@H](C[C@@H](C)[C@@H]2CC(=O)[C@H](C)/C=C(\C)[C@@H](O)[C@@H](OC)C(=O)[C@H](C)C[C@H](C)/C=C/C=C/C=C(\C)[C@H](N(O)C(=O)N(C)C)C[C@@H]3CC[C@@H](C)[C@@](O)(O3)C(=O)C(=O)N3CCCC[C@H]3C(=O)O2)CC[C@H]1O | 2030 nM |
| ~100 µg/mL (≈ 97.2 µM) | 25 µg/mL (≈ 24.3 µM) | Weak | ~100 µg/mL (≈ 97.2 µM) | 50 µg/mL (≈ 48.6 µM) | 25 µg/mL (≈ 24.3 µM) | 3.12 µg/mL (≈ 3.03 µM) | Weak | Weak | 6.25 µg/mL (≈ 6.08 µM) | CO[C@@H]1C[C@H](C[C@@H](C)[C@@H]2CC(=O)[C@H](C)/C=C(\C)[C@@H](O)[C@@H](OC)C(=O)[C@H](C)C[C@H](C)/C=C/C=C/C=C(\C)[C@@H](N(O)C(=O)N3CCOCC3)C[C@@H]3CC[C@@H](C)[C@@](O)(O3)C(=O)C(=O)N3CCCC[C@H]3C(=O)O2)CC[C@H]1O | 1620 nM |
| ~100 µg/mL (≈ 102 µM) | 3.12 µg/mL (≈ 3.18 µM) | Weak | ~100 µg/mL (≈ 102 µM) | 12.5 µg/mL (≈ 12.8 µM) | 1.56 µg/mL (≈ 1.59 µM) | 0.78 µg/mL (≈ 0.796 µM) | Weak | Weak | 1.56 µg/mL (≈ 1.59 µM) | CO[C@@H]1C[C@H](C[C@@H](C)[C@@H]2CC(=O)[C@H](C)/C=C(\C)[C@@H](O)[C@@H](OC)C(=O)[C@H](C)C[C@H](C)/C=C/C=C/C=C(\C)[C@H](c3ccc(C)s3)C[C@@H]3CC[C@@H](C)[C@@](O)(O3)C(=O)C(=O)N3CCCC[C@H]3C(=O)O2)CC[C@H]1O | 221 nM |
| ~100 µg/mL (≈ 98.5 µM) | 1.56 µg/mL (≈ 1.54 µM) | Weak | ~100 µg/mL (≈ 98.5 µM) | 3.12 µg/mL (≈ 3.07 µM) | 1.56 µg/mL (≈ 1.54 µM) | 0.78 µg/mL (≈ 0.768 µM) | Weak | Weak | 0.78 µg/mL (≈ 0.768 µM) | CO[C@@H]1C[C@H](C[C@@H](C)[C@@H]2CC(=O)[C@H](C)/C=C(\C)[C@@H](O)[C@@H](OC)C(=O)[C@H](C)C[C@H](C)/C=C/C=C/C=C(\C)[C@H](N(O)C(=O)OCC(C)C)C[C@@H]3CC[C@@H](C)[C@@](O)(O3)C(=O)C(=O)N3CCCC[C@H]3C(=O)O2)CC[C@H]1O | 196 nM |
| ~100 µg/mL (≈ 101 µM) | 100 µg/mL (≈ 101 µM) | Weak | ~100 µg/mL (≈ 101 µM) | 100 µg/mL (≈ 101 µM) | 50 µg/mL (≈ 50.7 µM) | 3.12 µg/mL (≈ 3.16 µM) | Weak | Weak | – | CO[C@@H]1C[C@H](C[C@@H](C)[C@@H]2CC(=O)[C@H](C)/C=C(\C)[C@@H](O)[C@@H](OC)C(=O)[C@H](C)C[C@H](C)/C=C/C=C/C=C(\C)[C@@H](N(O)C(=O)N(C)C)C[C@@H]3CC[C@@H](C)[C@@](O)(O3)C(=O)C(=O)N3CCCC[C@H]3C(=O)O2)CC[C@H]1O | 2030 nM |

More lines, now with the values behind:

| SMILES | MIC (Aspergillus niger) | MIC (Candida albicans [1]) | MIC (Candida albicans [2]) | MIC (Candida albicans [3]) | MIC (Candida albicans [4]) | MIC (Candida tropicalis) | MIC (Nakaseomyces glabratus) | MIC (Candida albicans [5]) | MIC (Candida albicans [6]) | MIC (Pichia kudriavzevii) | IC50 (Homo sapiens) |
| --- | --- | --- | --- | --- | --- | --- | --- | --- | --- | --- | --- |
| COC(=O)N(O)[C@@H]1C[C@@H]2CC[C@@H](C)[C@@](O)(O2)C(=O)C(=O)N2CCCC[C@H]2C(=O)O[C@H]([C@H](C)C[C@@H]2CC[C@@H](O)[C@H](OC)C2)CC(=O)[C@H](C)/C=C(\C)[C@@H](O)[C@@H](OC)C(=O)[C@H](C)C[C@H](C)/C=C/C=C/C=C/1C | ~100 µg/mL (≈ 103 µM) | 3.12 µg/mL (≈ 3.21 µM) | Weak | ~100 µg/mL (≈ 103 µM) | 6.25 µg/mL (≈ 6.42 µM) | 3.12 µg/mL (≈ 3.21 µM) | 0.78 µg/mL (≈ 0.801 µM) | Weak | Weak | 0.39 µg/mL (≈ 0.401 µM) | 16 nM |
| CO[C@@H]1C[C@H](C[C@@H](C)[C@@H]2CC(=O)[C@H](C)/C=C(\C)[C@@H](O)[C@@H](OC)C(=O)[C@H](C)C[C@H](C)/C=C/C=C/C=C(\C)[C@H](N(O)C(=O)N3CCCCC3)C[C@@H]3CC[C@@H](C)[C@@](O)(O3)C(=O)C(=O)N3CCCC[C@H]3C(=O)O2)CC[C@H]1O | ~100 µg/mL (≈ 97.4 µM) | 1.56 µg/mL (≈ 1.52 µM) | Weak | ~100 µg/mL (≈ 97.4 µM) | 1.56 µg/mL (≈ 1.52 µM) | 6.25 µg/mL (≈ 6.09 µM) | 1.56 µg/mL (≈ 1.52 µM) | Weak | Weak | 1.56 µg/mL (≈ 1.52 µM) | 786 nM |
| CO[C@H]1C[C@@H]2CC[C@@H](C)[C@@](O)(O2)C(=O)C(=O)N2CCCC[C@H]2C(=O)O[C@H]([C@H](C)C[C@@H]2CC[C@@H](OC(=O)N(C)C)[C@H](OC)C2)CC(=O)[C@H](C)/C=C(\C)[C@@H](O)[C@@H](OC)C(=O)[C@H](C)C[C@H](C)CCCC/C=C/1C | – | 50 µg/mL (≈ 50.5 µM) | – | – | 50 µg/mL (≈ 50.5 µM) | > 100 µg/mL | – | – | – | 6.25 µg/mL (≈ 6.32 µM) | 485 nM |
| COC(=O)N(O)[C@H]1C[C@@H]2CC[C@@H](C)[C@@](O)(O2)C(=O)C(=O)N2CCCC[C@H]2C(=O)O[C@H]([C@H](C)C[C@@H]2CC[C@@H](O)[C@H](OC)C2)CC(=O)[C@H](C)/C=C(\C)[C@@H](O)[C@@H](OC)C(=O)[C@H](C)C[C@H](C)/C=C/C=C/C=C/1C | ~100 µg/mL (≈ 103 µM) | 25 µg/mL (≈ 25.7 µM) | Weak | ~100 µg/mL (≈ 103 µM) | 50 µg/mL (≈ 51.4 µM) | 25 µg/mL (≈ 25.7 µM) | 1.56 µg/mL (≈ 1.6 µM) | Weak | Weak | 1.56 µg/mL (≈ 1.6 µM) | 1.47 nM |
| CCCOC(=O)N(O)[C@H]1C[C@@H]2CC[C@@H](C)[C@@](O)(O2)C(=O)C(=O)N2CCCC[C@H]2C(=O)O[C@H]([C@H](C)C[C@@H]2CC[C@@H](O)[C@H](OC)C2)CC(=O)[C@H](C)/C=C(\C)[C@@H](O)[C@@H](OC)C(=O)[C@H](C)C[C@H](C)/C=C/C=C/C=C/1C | ~100 µg/mL (≈ 99.9 µM) | 12.5 µg/mL (≈ 12.5 µM) | Weak | ~100 µg/mL (≈ 99.9 µM) | 12.5 µg/mL (≈ 12.5 µM) | 6.25 µg/mL (≈ 6.24 µM) | 1.56 µg/mL (≈ 1.56 µM) | Weak | Weak | 0.78 µg/mL (≈ 0.779 µM) | 900 nM |
| CO[C@@H]1C[C@H](C[C@@H](C)[C@@H]2CC(=O)[C@H](C)/C=C(\C)[C@@H](O)[C@@H](OC)C(=O)[C@H](C)C[C@H](C)/C=C/C=C/C=C(\C)[C@H](N(O)C(=O)OC(C)C)C[C@@H]3CC[C@@H](C)[C@@](O)(O3)C(=O)C(=O)N3CCCC[C@H]3C(=O)O2)CC[C@H]1O | ~100 µg/mL (≈ 99.9 µM) | 6.25 µg/mL (≈ 6.24 µM) | Weak | ~100 µg/mL (≈ 99.9 µM) | 12.5 µg/mL (≈ 12.5 µM) | 25 µg/mL (≈ 25 µM) | 0.78 µg/mL (≈ 0.779 µM) | Weak | Weak | 0.78 µg/mL (≈ 0.779 µM) | 220 nM |
| CO[C@@H]1C[C@H](C[C@@H](C)[C@@H]2CC(=O)[C@H](C)/C=C(\C)[C@@H](O)[C@@H](OC)C(=O)[C@H](C)C[C@H](C)/C=C/C=C/C=C(\C)[C@H](N(O)C(=O)Oc3ccccc3)C[C@@H]3CC[C@@H](C)[C@@](O)(O3)C(=O)C(=O)N3CCCC[C@H]3C(=O)O2)CC[C@H]1O | ~100 µg/mL (≈ 96.6 µM) | 1.56 µg/mL (≈ 1.51 µM) | Weak | ~100 µg/mL (≈ 96.6 µM) | 3.12 µg/mL (≈ 3.01 µM) | 0.78 µg/mL (≈ 0.753 µM) | 0.78 µg/mL (≈ 0.753 µM) | Weak | Weak | 0.78 µg/mL (≈ 0.753 µM) | 170 nM |
| CO[C@H]1C[C@@H]2CC[C@@H](C)[C@@](O)(O2)C(=O)C(=O)N2CCCC[C@H]2C(=O)O[C@H]([C@H](C)C[C@@H]2CC[C@@H](OC(=O)N(C)O)[C@H](OC)C2)CC(=O)[C@H](C)/C=C(\C)[C@@H](O)[C@@H](OC)C(=O)[C@H](C)C[C@H](C)CCCC/C=C/1C | – | 3.12 µg/mL (≈ 3.15 µM) | – | – | 3.12 µg/mL (≈ 3.15 µM) | 3.12 µg/mL (≈ 3.15 µM) | – | – | – | 1.56 µg/mL (≈ 1.57 µM) | 434 nM |
